The results in this text go back to PubChem BioAssay AID1918998 (Molecular Pharmacology Branch, DTP, NCI, 2023).

This experiment has as its system 521955-158-R2-J5-PDC complex spheroid growth. Nature of the experiment: Anticancer human tumor 521955-158-R2-J5-PDC patient-derived pancreatic carcinoma cell line growth inhibition [AhR]. Particulars: for viability, T/C: stronger effect = lower value. An excerpt:
Multicellular complex tumor spheroid response to aryl hydrocarbon receptor antagonists in combination with a variety of drugs and investigational agents in selected tumor cell lines
The current study was undertaken to assess response to aryl hydrocarbon receptor antagonists in combination with standard-of-care drugs and investigational agents in solid tumor complex spheroid models. Complex spheroids include a stromal component modeled by human endothelial cells (HUVEC) and fibroblasts modeled by human mesenchymal stem cells (MSCs). The concentration ranges selected for each drug and investigational agent were based upon clinically achievable concentrations if the clinical Cmax of the agent was known.
Compounds. The drugs and investigational agents: BAY 2416964 (NSC825713), GNF351 (NSC835774), CH-223191 (NSC835775), CPI-455 (NSC825282), aza-TdCyd (NSC777586), decitabine (NSC127716), belinostat (NSC758774), entinostat (NSC756642), pevonedistat (NSC761192), tazemetostat (NSC777109), talazoparib (NSC765396), olaparib (NSC753686), selinexor (NSC780203), nedisertib (M3814, NSC802822), bortezomib (NSC756655), venetoclax (NSC766270), doxorubicin (NSC123127), elimusertib (BAY189344, NSC800525), ceralasertib (AZD6738, NSC777638), TAK-243 (NSC785004), alisertib (NSC759677), etoposide (NSC141540), topotecan (NSC609699), eribulin (NSC707389), gemcitabine (NSC613327), carboplatin (NSC241240), cisplatin (NSC119875), and SN-38 (NSC673596) were obtained from the National Cancer Institute (NCI) Developmental Therapeutics Program Chemical Repository (32). The FDA-approved anticancer drug set is available from the Developmental Therapeutics Program at https://dtp.cancer.gov/organization/dscb/obtaining/available plates.htm. […] The stock solutions were prepared in dimethyl sulfoxide (DMSO, Sigma-Aldrich, St. Louis, MO, cat. D2650), except for the platinum compounds which were prepared in saline (Quality Biological, Gaithersburg, MD, cat. 114-055-101), at 800-fold the tested concentration and stored at -70 degrees C prior to their use. All drugs and investigational agents were tested over a range starting from a high concentration at or near the clinical Cmax and decreasing in half-log increments. If the clinical Cmax for an agent had not been determined, the highest concentration tested was 10 microM (Table 1).
Cell Culture. All cells were maintained in an incubator at 37 degrees C and 5% CO2 with 95% humidity. The PDC lines were cultured according to standard operating procedures established by the NCI PDMR (https://pdmr.cancer.gov). Briefly, all PDCs were thawed and cultured in Matrigel-coated flasks prepared with a working solution of 1X Ham's F-12 nutrient mix, without supplementation (Invitrogen, Waltham, MA, cat. 11765054), 100 U/mL penicillin-streptomycin (Invitrogen, cat. 15140122), and 2.5% Matrigel (Corning Inc., Corning, NY, cat. 354248) for the first three passages. All PDCs were cultured in complete DMEM/F-12 media containing advanced DMEM/F-12 (Invitrogen, cat. 12634028), 4.9% defined fetal bovine serum, heat inactivated (HyClone Laboratories Inc., Logan, UT, cat. SH30070.03HI), 389 ng/mL hydrocortisone (Sigma-Aldrich, cat. H4001), 9.7 ng/mL human EGF recombinant protein (Invitrogen, cat. PHG0313), 23.4 microg/mL adenine (Sigma-Aldrich, cat. A2786), 97.3 U/mL penicillin-streptomycin (Invitrogen, cat. 15140122), 1.9 mM L-glutamine (Invitrogen, cat. 25030081), and 9.7 microM Y-27632 dihydrochloride (Tocris Bioscience, Bristol, United Kingdom, cat. 1254). The PDCs were cultured in complete DMEM/F12 media without 10 microM Y-27632 dihydrochloride for at least two passages prior to the screen. The established cell lines NCI-H1341 and […] were cultured in DMEM/F-12, HEPES (Invitrogen, cat. 11330032), 5% defined fetal bovine serum (HyClone Laboratories Inc., cat. SH30070.03), ITS premix universal culture supplement [insulin (5 microg/mL), transferrin (5 microg/mL), and selenious acid (5 ng/mL)] […]

[1] abbreviates: curve of first compound, second compound 0.1 µM.
[2] abbreviates: curve of first compound, second compound 0.316 µM.
Where [3] appears, read: curve of first compound, second compound 1 µM.
[4] abbreviates: curve of first compound, second compound 3.16 µM.
Setting [5] is: curve of first compound, second compound 10 µM.
Where [6] appears, read: second compound 0.1 µM, first compound 0.0316 µM.
Setting [7] is: second compound 0.1 µM, first compound 0.1 µM.
The mark [8] stands for this setting: second compound 0.1 µM, first compound 0.316 µM.
[9] abbreviates: second compound 0.1 µM, first compound 1 µM.
The mark [10] stands for this setting: second compound 0.316 µM, first compound 0.0316 µM.
The mark [11] stands for this setting: second compound 0.316 µM, first compound 0.1 µM.
Setting [12] is: second compound 0.316 µM, first compound 0.316 µM.
Where [13] appears, read: second compound 0.316 µM, first compound 1 µM.
Setting [14] is: second compound 1 µM, first compound 0.0316 µM.
The mark [15] stands for this setting: second compound 1 µM, first compound 0.1 µM.
The mark [16] stands for this setting: second compound 1 µM, first compound 0.316 µM.
The mark [17] stands for this setting: second compound 1 µM, first compound 1 µM.
[18] abbreviates: second compound 3.16 µM, first compound 0.0316 µM.
[19] abbreviates: second compound 3.16 µM, first compound 0.1 µM.
The mark [20] stands for this setting: second compound 3.16 µM, first compound 0.316 µM.
The mark [21] stands for this setting: second compound 3.16 µM, first compound 1 µM.
[22] abbreviates: second compound 10 µM, first compound 0.0316 µM.
The mark [23] stands for this setting: second compound 10 µM, first compound 0.1 µM.
Where [24] appears, read: second compound 10 µM, first compound 0.316 µM.
[25] abbreviates: second compound 10 µM, first compound 1 µM.

For orientation: viability, T/C means the result in the treated group divided by that in the control group, in per cent. A word on the IC50: it is the concentration that inhibits the measured activity by half.

Molecules are shown by their SMILES. “And” between values parts separate entries of the source, which are not always exact repeats. Identical values can stand only once. Some results are limits rather than exact numbers.
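Throughout, for viability, T/C: spheroids mix tumor cells with HUVEC endothelium and human MSC stroma; luminescence taken as viability surrogate after a week of drug exposure.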

In the case of `CC(C)c1c(-c2ccccc2)nc2c(C#N)c[nH]n2c1=O`, the viability, T/C is, setting by setting: (compound 0.0316 µM) 86.8% and 83.8% and 96.4%; (compound 0.1 µM) 103% and 100% and 89.5%; (compound 0.316 µM) 96.2% and 76.9% and 87.5%; (compound 1 µM) 85.3% and 75.7% and 64.5%; (compound 3.16 µM) 88.3% and 95.4% and 70.7%; (compound 10 µM) 83.1% and 71.7% and 86.4%. In addition, for the setting “curve of compound”, the IC50 is > 10000 nM.

`CC(CO)NC(=O)c1cc(-c2ccc(Cl)cc2)nn(-c2cnn(C)c2)c1=O` (stereo not given): the viability, T/C (compound 10 µM) was 87.4% [middle of 19 runs]. The IC50 (compound alone, run of 05/31/2022) is > 10000 nM.

`CC1COCCN1c1cc(C2(S(C)(=N)=O)CC2)nc(-c2ccnc3[nH]ccc23)n1` (stereo not given): the viability, T/C is 100% and 91.6% and 125% (compound 0.0316 µM); 108% and 93.5% and 106% (compound 0.1 µM); 107% and 85.8% and 101% (compound 0.316 µM); 114% and 85.9% and 106% (compound 1 µM); 34.1% and 30.7% and 22.6% (compound 3.16 µM); 18.6% and 15.7% and 17.3% (compound 10 µM). Also, where the note is “curve of compound”, the IC50 was 2470 nM and 2110 nM and 2160 nM.

Turning to `COc1ccc([C@@H](O)c2cc(-c3ncnc4cc(N5CCOCC5)ccc34)c(F)cc2Cl)nn1`, the viability, T/C by setting is: (compound 0.0316 µM) 103% and 74.5% and 83%; (compound 0.1 µM) 98.5% and 84.4% and 87.8%; (compound 0.316 µM) 104% and 83.6% and 80.7%; (compound 1 µM) 100% and 66.2% and 81.5%; (compound 3.16 µM) 75.2% and 63.6% and 64.8%; (compound 10 µM) 52% and 43.6% and 40.8%. Further, the IC50 (curve of compound) was > 10000 nM and 6700 nM and 6430 nM.

As for `Cc1ccccc1N=Nc1ccc(NC(=O)c2ccnn2C)c(C)c1`, the IC50 (compound alone, run of 06/14/2022) was > 10000 nM.

As to `Cc1cncc(-c2nc(NCCc3c[nH]c4ccccc34)c3ncn(C(C)C)c3n2)c1`, under “compound alone, run of 06/06/2022”, the IC50 was > 10000 nM.

For `COc1cccc2c1C(=O)c1c(O)c3c(c(O)c1C2=O)CC(O)(C(=O)CO)CC3OC1CC(N)C(O)C(C)O1` (stereo not given) + CC(CO)NC(=O)c1cc(-c2ccc(Cl)cc2)nn(-c2cnn(C)c2)c1=O, the IC50 under setting [1] is < 31.6 nM; the IC50 under setting [2] turned out to be 50.1 nM; the IC50 under setting [3] turned out to be 53.3 nM; the IC50 under setting [4] is < 31.6 nM; the IC50 under setting [5] stood at 38.7 nM. Also, the viability, T/C under setting [6] was 49.1%; the viability, T/C under setting [7] was 45.1%; the viability, T/C under setting [8] was 28%; the viability, T/C under setting [9] is 2.42%; the viability, T/C (second compound 0.1 µM, first compound 3.16 µM) is 7.75%; the viability, T/C (second compound 0.1 µM, first compound 10 µM) is 13.9%. Also, the viability, T/C reads like this: under setting [10], 54.6%; under setting [11], 42.6%; under setting [12], 24.5%; under setting [13], 2.21%; (second compound 0.316 µM, first compound 3.16 µM) 5.07%; (second compound 0.316 µM, first compound 10 µM) 13.4%. For the same compound, the viability, T/C under setting [14] is 56.4%; the viability, T/C under setting [15] is 41.7%; the viability, T/C under setting [16] is 24.1%; the viability, T/C under setting [17] was 9.29%; the viability, T/C (second compound 1 µM, first compound 3.16 µM) was 2.9%; the viability, T/C (second compound 1 µM, first compound 10 µM) was 14.6%. Moreover, the viability, T/C runs as follows: under setting [18], 50.7%; under setting [19], 41.8%; under setting [20], 25.8%; under setting [21], 8.77%; (second compound 3.16 µM, first compound 3.16 µM) 7.63%; (second compound 3.16 µM, first compound 10 µM) 14%. Further, the viability, T/C is 52.9% under setting [22]; 37% under setting [23]; 18.7% under setting [24]; 6.31% under setting [25]; 6.29% (second compound 10 µM, first compound 3.16 µM); 13.8% (second compound 10 µM, first compound 10 µM).

Regarding `Nc1ncn(C2CC(O)C(CO)O2)c(=O)n1` (stereo not given) + CC(CO)NC(=O)c1cc(-c2ccc(Cl)cc2)nn(-c2cnn(C)c2)c1=O, the IC50 was 621 nM under setting [1]; 652 nM under setting [2]; > 1000 nM under setting [3]; 803 nM under setting [4]; > 1000 nM under setting [5]. Further, the viability, T/C runs as follows: (second compound 0.1 µM, first compound 0.00316 µM) 113%; (second compound 0.1 µM, first compound 0.01 µM) 105%; under setting [6], 106%; under setting [7], 70.9%; under setting [8], 67.9%; under setting [9], 40.1%. Further, the viability, T/C runs as follows: (second compound 0.316 µM, first compound 0.00316 µM) 97.2%; (second compound 0.316 µM, first compound 0.01 µM) 107%; under setting [10], 107%; under setting [11], 70.8%; under setting [12], 68.1%; under setting [13], 41.2%. In addition, the viability, T/C was 111% (second compound 1 µM, first compound 0.00316 µM); 85.7% (second compound 1 µM, first compound 0.01 µM); 120% under setting [14]; 78.6% under setting [15]; 67.8% under setting [16]; 50.8% under setting [17]. In addition, the viability, T/C reads like this: (second compound 3.16 µM, first compound 0.00316 µM) 98.2%; (second compound 3.16 µM, first compound 0.01 µM) 95.2%; under setting [18], 87.3%; under setting [19], 87.1%; under setting [20], 64.7%; under setting [21], 46.4%. The viability, T/C was 83.3% (second compound 10 µM, first compound 0.00316 µM); 87% (second compound 10 µM, first compound 0.01 µM); 74.1% under setting [22]; 80.2% under setting [23]; 62.4% under setting [24]; 51% under setting [25].
